Experimental data from US20070161592A1, “Method of treating fear” (priority 2005, published 2007).

How the values were obtained:
NR1/NR2B = details: cited from earlier work
NR2B = assay: Western blot of NR2B in ACC after siRNA electroporation; type: in vivo, mouse; details: four days after electroporation
Protocol: Equal amounts of protein from the ACC and hippocampus were separated and electrotransferred onto PDVF membranes (Invitrogen), which were probed with anti-NR2A, anti-NR2B (Chemicon), and anti-PSD-95 (ABR) and with β-actin (Sigma) as a loading control. The membranes were incubated with horseradish peroxidase-conjugated secondary antibodies (anti-mouse IgG for PSD-95 and anti-rabbit IgG for the other primary antibodies), and bands were visualized using an ECL system (Perkin Elmer). Synaptosomal membrane fractions (LP1) were prepared as previously described (Dunah and Standaert, 2001) and solubilized using 1% SDS in TEVP buffer: 10 mM Tris-HCl, pH 7.4, 1 mM EDTA, 1 mM EGTA, 1× protease inhibitor cocktail (Sigma), and 1× phosphatase inhibitor cocktail 1 and 2 (Sigma). […] Results are expressed as means±SEM. […]
To inhibit NR2B expression specifically in the prefrontal cortex, including the ACC, siRNA was bilaterally delivered against NR2B with a reporter plasmid encoding EGFP by microelectroporation (Wei et al., 2003) (FIG. 8A). […] The expression levels of other NMDAR subunits (NR2A and NR1) and AMPA receptor subunit GluR1 were measured, and actin was used as a control in the ACCs of NR2B siRNA and control siRNA electroporated mice.

NR2B-mediated NMDA EPSCs = NR2B-mediated NMDA EPSCs in neurons from siRNA electroporated ACC slices; type: cell-based, mouse; details: Ro25-6981-sensitive component, control slices 12.6±2.6%
Protocol: Experiments were performed in a recording chamber on the stage of an Axioskop 2FS microscope with infrared DIC optics for visualizing whole-cell patch clamp recordings. EPSCs were recorded from layer II-III neurons using an Axon 200B amplifier (Axon Instruments, CA) and stimulations were delivered using a bipolar tungsten stimulating electrode placed in layer V of the ACC. In hippocampal slices, EPSCs were evoked by stimulating the Schaffer collateral-commissural pathway. EPSCs were induced by repetitive stimulations at 0.02 Hz and neurons were voltage clamped at −70 mV. The recording pipettes (3-5 MΩ) were filled with solution containing (mM) 145 K-gluconate, 5 NaCl, 1 MgCl2, 0.2 EGTA, 10 HEPES, 2 Mg-ATP, and 0.1 Na3-GTP (adjusted to pH 7.2 with KOH). After obtaining stable EPSCs for 10 min, three kinds of LTP induction paradigms were used within 12 min after establishing the whole-cell configuration to prevent wash out effect on LTP induction (Tsvetkov et al., 2002). The first protocol involved paired presynaptic 80 pulses at 2 Hz with postsynaptic depolarization at +30 mV (referred to as pairing training). […] The access resistance was 15-30 MΩ and was monitored throughout the experiment. […] Results are expressed as means±SEM. […]
NMDAR-mediated EPSCs were also recorded in neurons from electroporated ACC slices.

| Compound | IC50 (NR1/NR2B) [nM] | NR2B expression compared to control siRNA electroporated control (NR2B) [%] | NR2B-mediated NMDA EPSCs, % of total NMDAR-mediated current (NR2B-mediated NMDA EPSCs) [%] |
| --- | --- | --- | --- |
| C[C@@H](CN1CCC(Cc2ccccc2)CC1)[C@@H](O)c1ccc(O)cc1 [Ro25-6981] | 9 | – | – |
| NR2B siRNA: siRNA corresponding to NR2B, sense 5′-GGAUGAGUCCUCCAUGUUCtt-3′, antisense 5′-GAACAUGGAGGACUCAUCCtt-3′, Silencer Pre-designed siRNA ID #61879, Ambion (sense GGAUGAGUCCUCCAUGUUCTT; antisense GAACAUGGAGGACUCAUCCTT; chemistry not given here) | – | 64.8±4.6 | 7.3±0.7 |
